A word on the pKa: it is the negative logarithm of the acid dissociation constant. A high value points to a weaker acid or stronger base. Usually IC50 stands for the concentration that gives 50% inhibition. Low values mean higher potency, high ones lower potency.

One data set relates to THP-1 cells. As to the kind of experiment: Co-localization competition assay with Bay2402234 (Manders coefficient). The format is cell-based, human. The following applies: THP-1 cells, 10 μM, 3 h. As for the experimental part:
Colocalization between hDHODH inhibitors and mitochondria was quantified using Manders coefficient (Figure D).
THP-1 cells were incubated for 3 h with hDHODHi 11a and Bay240223410 at 10 μM, either alone or in combination. After incubation, the cells were washed and stained with Red-MitoTracker CMXRos (Thermo Fisher, Carlsbad, CA, USA) at a concentration of 100 nM for 30 min at 37 °C. Cells were imaged with a Leica TCS SP8 confocal system (Leica Microsystems) equipped with 4 excitation lasers (405 Diode, Argon, DPSS561, HeNe633). Images were acquired with a HCX PL APO 63×/1.4 NA oil-immersion objective with a resolution of 81 nm × 81 nm and were processed and analyzed with ImageJ software (Rasband, W.S., U.S. National Institutes of Health, Bethesda, […]). In particular, colocalization was analyzed with JACoP plugin and Manders’ coefficient was calculated

Data set [1] can be described thus: Photophysical characterization (absorption, emission, QY, lifetime). The format is physicochemical. The settings on record: in ACN. As for the experimental part:
UV–Vis absorption spectra were recorded on a Cary60 spectrometer. Photoemission spectra, luminescence lifetimes, and quantum yields were acquired with a HORIBA Jobin Yvon IBH Fluorolog-TCSPC spectrofluorometer equipped with a Quanta-φ integrating sphere. […] Emission-decay data were collected in 2048 channels to 10000 counts in the peak channel. IRF was measures using colloidal silica suspension in H2O to scatter light. Data were analyzed with the software DAS6 (TCSPC decay-analysis software) using a nonlinear least-squares method to fit of the decay to a sum of exponentials. The value of χ^2, residuals and the autocorrelation function (Durbin-Watson parameter) were used to determine the quality of the fit. For measurements in the presence of hDHODH, 11a was incubated, at 1 μM concentration in TRIS Buffer 0.1 mM (pH 8) with 0.1% DMSO, alone or with different concentrations of recombinant protein ranging from 31.5 to 504 nM concentration. After 5 min incubation UV–Vis absorption spectra were recorded on a Cary60 spectrophotometer and photoemission spectra were acquired with a HORIBA Jobin Yvon IBH Fluorolog-TCSPC spectrofluorometer with excitation λ of 366 nm and maximum of emission at 500 nm; a.u. data were analyzed with GraphPad Prism using One Site – Specific Binding equation.

A short description of the next data set: Experimental pKa. The class given is physicochemical.
The target of a further data set is hDHODH enzyme GST-tagged (Homo sapiens, UniProt Q02127). As to the kind of experiment: hDHODH inhibition assay (DCIP reduction).
hDHODH enzyme GST-tagged, sequence (Q02127 whole entry): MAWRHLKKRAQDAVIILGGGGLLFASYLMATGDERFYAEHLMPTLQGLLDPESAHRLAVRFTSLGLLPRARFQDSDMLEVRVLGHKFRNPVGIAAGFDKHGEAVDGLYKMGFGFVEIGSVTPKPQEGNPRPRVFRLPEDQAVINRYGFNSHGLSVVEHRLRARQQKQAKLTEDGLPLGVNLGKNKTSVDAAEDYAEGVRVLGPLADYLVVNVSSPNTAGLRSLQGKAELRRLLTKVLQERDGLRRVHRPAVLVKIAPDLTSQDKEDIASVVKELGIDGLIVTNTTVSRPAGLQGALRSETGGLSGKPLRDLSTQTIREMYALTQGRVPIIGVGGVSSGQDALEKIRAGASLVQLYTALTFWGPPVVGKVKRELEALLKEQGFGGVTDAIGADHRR

Method for hDHODH enzyme GST-tagged: The enzyme (around 60 nM) was preincubated for 5 min at 37 °C in Tris-buffer solution (pH 8.0) with coenzyme Q10 (100 μM), tested compounds at different concentrations (final DMSO concentration 0.1% v/v), and DCIP (50 μM). The reaction was initiated by addition of DHO (500 μM) and the reduction was monitored at λ = 650 nm. […] Values are means ± SE of three independent experiments.

In the case of `CCn1c(CO)nn(-c2cc(O[C@@H](C)C(F)(F)F)c(C(=O)Nc3c(F)cccc3Cl)cc2F)c1=O` [Bay2402234, reference compound], the “fluorescence at the wavelength specific for 11a” value in the data set on THP-1 cells is reported as “no detectable fluorescence”.

Consider `Oc1cc2ccccn2n1` [Compound 1, Pyrazolo[1,5-a]pyridin-2-ol], for which, in data set [1], the Lifetime is listed as 12 ns, the “QY (luminescence quantum yield)” value turned out to be 0.21, the Stokes shift turned out to be 7567 cm^–1 and the λabs was 310 nm. In data set [1], the λem is recorded as 405 nm. The compound also gave a pKa in “Experimental pKa” of roughly 5.

Consider `CCOC(=O)c1c(O)nn2ccccc12` [Compound 2, Ethyl 2-hydroxypyrazolo[1,5-a]pyridine-3-carboxylate], for which, in data set [1], the Lifetime was found to be 7 ns, the “QY (luminescence quantum yield)” value is recorded as 0.42, the Stokes shift is listed as 5139 cm^–1 and the λabs stood at 313 nm. In data set [1], the λem was 373 nm. Moreover, the pKa in “Experimental pKa” came out at 5.39.

As to `Oc1nn2ccccc2c1-c1ccc2cc(-c3ccccc3)cnc2c1` [Compound 13, 3-(3-Phenylquinolin-7-yl)pyrazolo[1,5-a]pyridin-2-ol], in data set [1], the Lifetime was determined as 3.7 ns, the “QY (luminescence quantum yield)” value stood at 0.74, the Stokes shift is 5288 cm^–1 and the λabs is recorded as 370 nm. The compound also gave a λem in data set [1] of 460 nm. Moreover, the midpoint of inhibition at hDHODH enzyme GST-tagged, the IC50, lay at 33 µM.

The values above are taken from PMC12257544, “Fluorescent Isostere (Fluostere) of the Carboxylate: Design of hDHODH Fluorescent Inhibitors as Proof of Concept” (Journal of Medicinal Chemistry, 2025).
